The record followed here is patent US20090099167A1, “Organic compounds” (Novartis Institutes for Biomedical Research, priority 2004, published 2009).

The target in one experiment is T1, human insulin receptor (Ins-R) (Homo sapiens, UniProt P06213).
T1 construct: encoding the amino acid region 919-1343 of the intra-cytoplasmic kinase domain of the human insulin receptor; made in house; host or cells: baculovirus (Bac-to-Bac)
T1 sequence (P06213 958-1382 limits assumed): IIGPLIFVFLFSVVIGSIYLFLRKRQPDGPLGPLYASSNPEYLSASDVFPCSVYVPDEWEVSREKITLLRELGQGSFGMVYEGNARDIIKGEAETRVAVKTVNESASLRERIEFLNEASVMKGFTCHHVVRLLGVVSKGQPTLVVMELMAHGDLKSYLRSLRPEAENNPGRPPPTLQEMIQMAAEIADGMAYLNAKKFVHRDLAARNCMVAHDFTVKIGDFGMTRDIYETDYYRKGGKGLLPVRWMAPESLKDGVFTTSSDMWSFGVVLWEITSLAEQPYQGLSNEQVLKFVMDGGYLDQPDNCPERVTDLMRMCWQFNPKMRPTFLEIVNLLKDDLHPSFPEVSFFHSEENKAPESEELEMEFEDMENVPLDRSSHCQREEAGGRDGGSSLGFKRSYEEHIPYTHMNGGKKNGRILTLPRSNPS
Nature of the experiment: Ins-R tyrosine kinase assay, GST-Ins-R. The experiment is classed as biochemical. The settings on record: Table 4; read-out: Ins-R, activity (IC50 for kinase inhibition). The text has this:
The inhibition of IGF-1R and Ins-R can be determined as follows: The baculovirus donor vector pfbgx3IGFIRcd is used to generate a recombinant baculovirus that expresses the amino acid region 950-1337 of the mature peptide cytoplasmic domain of the human IGF-IR. To generate the cDNA fragment encoding the amino acid region 919-1343 of the intra-cytoplasmic kinase domain of the human insulin receptor, pC5hInsR is used. The fragments of the human IGF-IR and Ins-R are cloned, expressed and small-scale purified as a factor Xa-cleavable glutathione-S-transferase (GST)-fusion protein using the Bac-to-Bac™ system (GIBCO BRL) of recombinant baculovirus generation. Virus containing media is collected from the transfected cell culture and used for infection to increase its titer. Virus containing media obtained after two rounds of infection is used for large-scale protein expression. Cell extracts are prepared and loaded onto a glutathione-Sepharose (Pharmacia) column. After washing, the GST-tagged proteins are then eluted with a glutathione-containing buffer. Purified protein is stored at −70° C. in elution buffer. Tyrosine protein kinase assays with purified GST-IGF-1R and GST-ins-R are carried in a final volume of 30 μl containing 20 mM Tris-HCl, pH 7.6, 10 mM MgCl2, 0.01 mM Na3VO4, 1% DMSO, 1 mM DTT, 3 μg/ml poly(Glu,Tyr) 4:1 and 10 μM ATP (γ-[^33P]-ATP 0.1 μCi). The assay is performed in 96-well plates at ambient temperature for 20 min and terminated by addition of 25 μl 0.05 M EDTA pH 7.0. An aliquot of 40 μl is spotted with a multichannel dispenser on Whatman P81 membranes mounted in a Millipore Microtiter filter manifold connected to a low vacuum source. After elimination of liquid, the membrane is transferred to a sequence of 4 washing baths containing 0.5% H3PO4 and one with EtOH (shaking incubation for 10 min each), dried, mounted onto a Hewlett Packard TopCount manifold added 10 μl Microscint® and counted. Compounds of formula (I) show up to 90% inhibition of Ins-R at 10,000 nM, preferably between 60-90% inhibition. The inhibition of Tek can be determined as follows: The procedure of the expression, purification and assay these kinases has been described. Fabbro et al., Pharmacol. Ther. 82(2-3) 293-301 (1999). In brief, the glutathione S-transferase (GST) gene from the pAcG1 vector (Pharmingen) is excised with EcoRV and EcoRI and inserted into the cloning site of the Fast-Bac baculoviral vector (GIBCO) creating a 5530 bp vector with N-terminal cloning sites derived from the pAcG1 fusion vector (FBG0). The C-terminal cloning site may be any cloning site (from the Fast-Bac vector) downstream of the N-terminal cloning site used. N-terminally GST-fused (pAcG1, Pharmingen) KDR, Flt-1, Flk-1, Tek and PDGFR-β kinase domains are obtained from ProQinase, Freiburg, Germany. Tek is recloned into the FBG1 vector by EcoRI excision and ligation into EcoRI digested FBG1 (FBG1-Tek). The coding sequences for the whole cytoplasmic domain of c-Kit (aa 544-976) and c-Fms (aa 538-972) are amplified by PCR from human uterus and from human bone marrow cDNA libraries (Clontech), respectively. The amplified DNA fragments are fused to GST by cloning them into FBG1 as BamHI-EcoRI insertions, to yield FBG1-c-Kit and FBG1-c-Fms. Tek is recloned into the FBG0 transfer vector by EcoRI excision and ligation into EcoRI digested FBG0 (FBG-Tie2/Tek). FGFR-1 and c-met kinase domains are obtained by PCR from human A431 cells. N-terminal primers contain an overhanging EcoRI site, while C-terminal primers contain a XhoI site to aid cloning into the transfer vectors. After digestion of both the PCR fragments and FBG0 the cleavage products are gel-purified and ligated together to form the kinase constructs (FBG-Met, FBG-FGFR-1).
In general, IC50 refers to the midpoint of a concentration-inhibition curve. `CN1CCN(c2ccc(-c3cnn4c(N)c(-c5cccc(O)c5)cnc34)cc2)CC1` [Example 1, 3-{7-Amino-3-[4-(4-methyl-piperazin-1-yl)-phenyl]-pyrazolo[1,5-a]pyrimidin-6-yl}-phenol]: the IC50 was less than 10 µM.

Staying with this experiment, now noted: Table 5; read-out: Ins-R, IC50 class.
As to `Cc1nc2c(-c3ccc(N4CCN(C)CC4)cc3)cnn2c(N)c1-c1ccc(F)c(Cl)c1` [Example 83, 6-(3-Chloro-4-fluoro-phenyl)-5-methyl-3-[4-(4-methyl-piperazin-1-yl)-phenyl]-pyrazolo[1,5-a]pyrimidin-7-ylamine], the half-maximal inhibitory concentration (IC50) was greater than 10 µM.

Regarding `Cc1nc2c(-c3cccc(N4CCN(CCO)CC4)c3)cnn2c(N)c1-c1cccc(Cl)c1` [Example 90, 2-(4-{3-[7-Amino-6-(3-chloro-phenyl)-5-methyl-pyrazolo[1,5-a]pyrimidin-3-yl]-phenyl}-piperazin-1-yl)-ethanol], the IC50 is greater than 10 µM.

On to `COc1ccc(-c2cnn3c(N)c(-c4cccc(Cl)c4)c(C)nc23)cc1` [Example 88, 6-(3-Chloro-phenyl)-3-(4-methoxy-phenyl)-5-methyl-pyrazolo[1,5-a]pyrimidin-7-ylamine], for which the IC50 was greater than 10 µM.

As to `Cc1nc2c(-c3ccc(N4CCN(C)CC4)cc3)cnn2c(N)c1-c1cccc(Cl)c1` [Example 73, 6-(3-Chloro-phenyl)-5-methyl-3-[4-(4-methyl-piperazin-1-yl)-phenyl]-pyrazolo[1,5-a]pyrimidin-7-ylamine], the IC50 is greater than 10 µM.

For `COc1cc(N2CCN(C)CC2)ccc1-c1cnn2c(N)c(-c3cccc(O)c3)cnc12` [Example 76, 3-{7-Amino-3-[2-methoxy-4-(4-methyl-piperazin-1-yl)-phenyl]-pyrazolo[1,5-a]pyrimidin-6-yl}-phenol], the IC50 was in the range of 1 to 10 µM.

Turning to `Cc1nc2c(-c3cccc(N4CCN(C)CC4)c3)cnn2c(N)c1-c1ccc(F)cc1` [Example 80, 6-(4-Fluoro-phenyl)-5-methyl-3-[3-(4-methyl-piperazin-1-yl)-phenyl]-pyrazolo[1,5-a]pyrimidin-7-ylamine], the half-inhibitory concentration (IC50) is greater than 10 µM.

With `Cc1nc2c(-c3cccc(N4CCN(C)CC4)c3)cnn2c(N)c1-c1cccc(Cl)c1` [Example 72, 6-(3-Chloro-phenyl)-5-methyl-3-[3-(4-methyl-piperazin-1-yl)-phenyl]-pyrazolo[1,5-a]pyrimidin-7-ylamine], the IC50 fell in the range of 1 to 10 µM.

The target in a further experiment is T2, human VEGF-R2 receptor (KDR) (Homo sapiens, UniProt P35968).
T2 construct: expressed in transfected cells; host or cells: CHO cells
T2 sequence (P35968 20-1356): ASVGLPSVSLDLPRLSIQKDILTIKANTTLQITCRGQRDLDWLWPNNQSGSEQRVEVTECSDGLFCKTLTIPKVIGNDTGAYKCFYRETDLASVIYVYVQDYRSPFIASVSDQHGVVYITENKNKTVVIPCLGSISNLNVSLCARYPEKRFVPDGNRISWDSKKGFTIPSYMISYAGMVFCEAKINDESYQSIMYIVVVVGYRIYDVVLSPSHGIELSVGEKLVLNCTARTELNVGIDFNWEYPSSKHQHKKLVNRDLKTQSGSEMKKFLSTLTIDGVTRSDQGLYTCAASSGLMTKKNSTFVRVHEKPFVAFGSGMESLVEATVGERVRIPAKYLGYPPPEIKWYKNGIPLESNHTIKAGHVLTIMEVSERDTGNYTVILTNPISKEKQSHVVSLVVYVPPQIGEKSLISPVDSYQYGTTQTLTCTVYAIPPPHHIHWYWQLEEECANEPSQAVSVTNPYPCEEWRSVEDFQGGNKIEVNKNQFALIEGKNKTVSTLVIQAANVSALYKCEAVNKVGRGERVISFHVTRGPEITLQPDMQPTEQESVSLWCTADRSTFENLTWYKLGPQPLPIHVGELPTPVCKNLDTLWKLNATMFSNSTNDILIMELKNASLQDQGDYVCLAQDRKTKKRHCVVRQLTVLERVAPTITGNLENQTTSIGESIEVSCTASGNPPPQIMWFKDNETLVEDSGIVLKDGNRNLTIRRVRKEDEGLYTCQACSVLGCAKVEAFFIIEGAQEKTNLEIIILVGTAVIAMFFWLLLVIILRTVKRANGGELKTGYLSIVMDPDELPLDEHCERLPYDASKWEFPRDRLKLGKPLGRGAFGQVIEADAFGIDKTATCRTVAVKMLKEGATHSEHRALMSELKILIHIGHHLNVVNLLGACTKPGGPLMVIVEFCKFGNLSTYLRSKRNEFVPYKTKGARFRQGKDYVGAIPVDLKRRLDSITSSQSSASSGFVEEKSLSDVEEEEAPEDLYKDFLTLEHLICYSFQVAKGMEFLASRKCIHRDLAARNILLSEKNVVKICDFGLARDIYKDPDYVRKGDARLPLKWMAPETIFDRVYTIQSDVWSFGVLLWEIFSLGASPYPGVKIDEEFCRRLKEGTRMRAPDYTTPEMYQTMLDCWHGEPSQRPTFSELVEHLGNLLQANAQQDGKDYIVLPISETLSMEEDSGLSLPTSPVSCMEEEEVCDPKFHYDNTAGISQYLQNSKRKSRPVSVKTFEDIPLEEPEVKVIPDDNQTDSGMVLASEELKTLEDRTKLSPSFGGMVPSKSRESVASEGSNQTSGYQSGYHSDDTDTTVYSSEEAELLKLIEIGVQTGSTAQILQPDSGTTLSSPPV
Nature of the experiment: VEGF-induced KDR autophosphorylation in transfected CHO cells, sandwich ELISA. The experiment is classed as cell-based. The conditions noted are these: Table 4; read-out: KDR, activity (IC50 for kinase inhibition). For orientation: ELISA stands for enzyme-linked immunosorbent assay.
For the molecule `CN1CCN(c2ccc(-c3cnn4c(N)c(-c5cccc(O)c5)cnc34)cc2)CC1` [Example 1, 3-{7-Amino-3-[4-(4-methyl-piperazin-1-yl)-phenyl]-pyrazolo[1,5-a]pyrimidin-6-yl}-phenol], the IC50 is less than 10 µM.

As to `Nc1c(-c2cccc(O)c2)cnc2c(-c3cccnc3)cnn12` [Example 46, 3-[7-Amino-3-pyridin-3-yl-pyrazolo[1,5-a]pyrimidin-6-yl]-phenol], the IC50 was less than 10 µM.

For `CN1CCN(c2cccc(-c3cnn4c(N)c(-c5cccc(O)c5)cnc34)c2)CC1` [Example 29, 3-{7-Amino-3-[3-(4-methyl-piperazin-1-yl)-phenyl]-pyrazolo[1,5-a]pyrimidin-6-yl}-phenol], the IC50 is less than 10 µM.
